Measured values published in publication PMC11288129, “Diversely evolved xibalbin variants from remipede venom inhibit potassium channels and activate PKA-II and Erk1/2 signaling” (BMC Biology, 2024).
“Also recorded” adds a separate entry of the source. Positions of bridges follow the written chain, without caps; N, C: chain ends. No end group written: not given here.

Legend:
rat DRG sensory neurons = experiment: Number of DRG neurons (cytotoxicity, high content imaging); assay type: cell-based; settings: also RAW264.7 and HMEC
Procedure: We initially determined the cytotoxic effects of xibalbins on primary sensory neurons from adult male rats cultured in vitro [2]. […] We exposed overnight cultures of dissociated rat dorsal root ganglions (DRGs) to xibalbins for 5 and 30 min. Subsequently, all cells were fixed and immunocytochemically stained for the neuronal marker UCHL1 to identify neurons. The entire culture was digitally scanned using high content imaging (HCI) microscopy, and cell numbers, UCHL1 staining per cell, and cell size was analyzed. No loss of neurons was induced by either of the tested xibalbins, even at the highest concentration of 0.8 µg/µL (Additional File 3: Figure S2). […] We further investigated the potential toxicity of xibalbins in monocyte/macrophage-like cells (RAW264.7) and human microvascular endothelial cells (HMEC); see Additional File 5: Figure S4 The viability of RAW264.7 cells was detected using a formazan-based assay, while the proliferation of HMECs was assessed by measuring the number of crystal violet-stained cells.
Male Sprague Dawley rats (250–400 g, 8–16 weeks old) were obtained from Envigo. […]
Stained cells were scanned with a CX7-LZR (Thermo Fisher Scientific) HCI system. Images were acquired with a 10 × objective and analyzed using the cellomics software package (Thermo Fisher Scientific). […] The resulting objects were quantified for average object intensity in all other color channels. […]

[1] = tested on: PKA-II (phospho-RIIα/β) in rat DRG neurons; experiment: High-content imaging of PKA-II activity (pRII) in DRG sensory neurons; assay type: cell-based; settings: for PKA-II activation: 5 and 30 min, 0.005 to 0.8 µg/µL; for increase in phospho-PKA-II intensity: 5 min; for pRII response by neuron size: xibalbins 0.8 µg/µL
Procedure: To gauge sensory neuron activity in response to various activating stimuli, including electrical activity, phosphorylation state detection of protein kinase A type II (PKA-II) and MAP kinase Erk1/2 can act as surrogate measurements. Consequently, we tested for increased phosphorylation states in a concentration-dependent manner following exposure to xibalbins. Dissociated DRG neurons were cultured overnight and then exposed to increasing concentrations of the corresponding xibalbins for 5 min and 30 min, respectively. As a positive control, forskolin (Fsk) was also used to induce cAMP synthesis. The activity of PKA-II was monitored by antibodies directed against the phosphorylation site of the inhibitory regulatory subunits RIIα/β, which is exclusively accessible when the catalytic kinase domain is released during kinase activation. For measuring Erk1/2 activity, phospho-sites on Erk1/2 (T202/Y204) were monitored through immunofluorescence, as these sites are phosphorylated during activation. Cellular images were captured using HCI microscopy (Fig. 8A), and the average intensity of each phospho-antibody was quantified (Fig. 8B).
Fig. 8 A Representative images of rat DRG neurons stimulated with PBS (Ctrl) and xib1b (0.8 µg/µL). Cells were stained for UCHL1, pRII, pERK1/2, and Hoechst followed by fixation and staining with standard immunocytochemistry protocols. Green-encircled neurons indicate automatically selected objects. Scale bar: 100 µm. B Mean intensities of UCHL1, pRII, and pERK1/2. The same UCHL1 intensities were observed among tested groups. Forskolin (Fsk), an activator of adenylyl cyclase, was used as a positive control. Fsk at 6 µM concentration induced an increase in pRII and pERK1/2 intensities at 5 and 30 min. Number of analyzed cells per replica: 750 ± 200. Eight independent replicas. C–F Concentration responses of xibalbin toxins (0.005 to 0.8 µg/µL) and mean intensities of pRII and pERK1/2 at 5 min and 30 min. G–H Size versus pRII and pErk1/2 intensities of cells treated with 0.8 µg/µL of xib1 and xib13. Small-sized cells were responding to xibalbins. Statistical significance was assessed using one-way ANOVA with Dunnett’s post hoc test. Data represent mean ± S.E.M (standard error of the mean), n = 4, see “Methods” for details and Additional File 6: Table S2 for individual data values
Male Sprague Dawley rats (250–400 g, 8–16 weeks old) were obtained from Envigo. Rats were kept in 12 h of light/darkness cycles. All experiments were performed in accordance with the German animal welfare law with permission of the District Government for Nature and Environment, NRW (84–02.05.20.13.045, 4.18.003). Rats were scarified by slow inhalation of CO2 which was followed by decapitation. DRGs were extracted from rats, deheated, pooled, and incubated in Neurobasal A/B27 medium (Invitrogen, #12349–015) supplemented with B-27 (Invitrogen #17504), L-glutamine 1:400, L-glutamate 1:270.3, and penicillin/streptomycin 1:100 containing 0.2 U/mL collagenase P (collagenase P, Roche, #1213857) and incubated for 1 h at 37 °C, 5% CO2. DRGs were dissociated with pasteur pipettes and axon stumps were separated by BSA (Sigma-Aldrich, # A2153-100G) gradient centrifugation (14% BSA, 120 g, 8 min). Cells were resuspended in NBA medium, plated in 96-well imaging plate (Greiner BioOne Sensoplate, Black, #655896) precoated with poly-L-ornithine hydrochloride (0.1 mg/ml Sigma, #P2533)/laminin (5 µg/ml Invitrogen, #23017–015), and incubated overnight at 37 °C, 5% CO2.
DRGs were stimulated after overnight incubation. Compounds were prepared as tenfold concentrated stock solutions, diluted in PBS (PAA, cat# H15-002), in v-bottom plates; 50 µL media from culture wells were mixed with the […] stock solutions, and 50 µL added back to the respective wells. Stimulation was performed with automated multichannel pipette and cells were kept in heated block during the stimulation. […]

Sequence | cytolytic or cytotoxic activity (rat DRG sensory neurons) | PKA-II activation [1] | increase in phospho-PKA-II intensity ([1]; 0.4 µg/µL (74 µM), q = 3.29) | increase in phospho-PKA-II intensity ([1]; 0.8 µg/µL (148 µM), q = 4.17) | change in phospho-PKA-II intensity ([1]; 30 min) | pRII response by neuron size [1]
KRSCIRRFGRCDHRPNDCCYNSSCRCNLWGSNCRCQRMGLFQKWGK (disulfide 4-19, 11-24, 18-35, 26-33) [xib13] | do not show overt cytolytic or cytotoxic activity | increase PKA-II and Erk1/2 sensitization signaling; also recorded: increased PKA-II and pErk1/2 activity | up to 1.21 fold | up to 1.21 fold | No change | increased phosphorylation signals in both small-sized and large-sized sensory neurons
RLFCIRHHKYCGHRPKRCCSGLFCRCNTFGTNCRCQSKGALGKLI (disulfide 4-19, 11-24, 18-35, 26-33) [xib1] | do not show overt cytolytic or cytotoxic activity | increase PKA-II and Erk1/2 sensitization signaling; also recorded: increased PKA-II and pErk1/2 activity | – | – | – | increased phosphorylation signals in both small-sized and large-sized sensory neurons
